Measured values taken from patent US20060293227A1, “Cosmetic compositions and methods using transforming growth factor-beta mimics” (priority 2005, published 2006).
One block for each substance: values may come before it. Where no end group is shown, it is not given here. [ ]: non-standard residue; d: D form. NMeA = CN[C@@H](C)C(=O)O; Abu = CC[C@H](N)C(=O)O; Aib = CC(C)(N)C(=O)O

Key:
[1] = system: Mv-1-Lu mink lung epithelial cells; experiment: Inhibition of DNA synthesis ([3H]thymidine incorporation) of Mv-1-Lu mink lung epithelial cells; format: cell-based; conditions: for Inhib by new peptide/Inhib by cytomodulin: 3H-thymidine incorporation, MV-1-Lu cells, cytomodulin at same concentration; for 3H-Radioactivity / % Inhibition of incorporation of 3H-thymidine: MV-1 Lu cells; for Inhibition of DNA synthesis / proliferation of Mv-1-Lu cells (in words): thymidine incorporation, cytomodulin at 10^-9 to 10^-6 M
Protocol: The effect of TGF-β and cytomodulin were evaluated by determining the rate of […] incorporation into total acid-insoluble DNA and cell number. See generally, Sampath et al., J. Biol. Chem., 267, pp. 20352-20362 (1992). DNA synthesis rates were determined in triplicate cultures after 24 hour treatment with various concentrations (10^−9 M to 10^−6 M) of either TGF-β or cytomodulin (which was synthesized by the Merrifield method) by adding [methyl-^3H]thymidine (2uCi/ml, 80 Ci/mmol) for 6 hours before the termination of the culture. Incorporation was terminated by aspiration of the medium, and after washing three times with phosphate-buffered saline, the trichloroacetic acid (10%)-precipitated radioactive DNA was extracted with 1.0% (w/v) sodium dodecyl sulfate, 0.1 M NaOH and quantitated by liquid scintillation counting. For cell number determination, 1×10^5 cells were plated in flasks in MEM containing 10% FBS, and after 24 hours, the growth medium was replaced with serum-free medium containing various conceptions of TGF-β and cytomodulin. Triplicate cultures were harvested every 24 hours for the duration of 7 days, and the cell number was determined by counting cells released by trypsin digestion in a fixed volume hemacytometer.
The numbers shown at the various concentration are the ratio of the inhibition rate of the peptide being tested over the inhibition rate of cytomodulin (SEQ ID NO: 1) at the same concentration.
Tests for bioactivity were conducted as described above for DNA inhibition. In summary, the cytomodulin analogs listed in Table 3 were all found active as agonists and thus, as defined herein, are considered TGF-β mimics.

[2] = system: skin; parameters: species or system human; conditions: in vivo
Description: A person, of light complexion, applied a lotion comprising cytomodulin (SEQ ID NO: 1) at a concentration of about 0.001%, in EUCERIN™, to one side of their face a at a frequency of 1-2 times per week, typically at night before sleep, leaving uncovered while leaving the other side of their face without application of the TGF-β lotion. […] For example, crows feet became more shallow and the skin and face looked fuller and smoother. Color and skin tone became more youthful in appearance. […] After 18 days of treatment, the difference in appearance between the treated and untreated sides of the face was noticeable enough that the subject began to apply the topical composition to the entire face.
The same subject applied the CM-1 lotion to the back of one hand daily, while leaving the back of the other hand untreated. The treatment continued for several weeks.

[3] = system: eyelids; parameters: species or system human; conditions: in vivo
Description: A person, applied a lotion comprising cytomodulin (SEQ ID NO: 1) at a concentration of about 0.001%, to their eyelids twice per week for 2 months.

[4] = system: skin; parameters: species or system human; conditions: in vivo; remark: listed apart in the source
Description: A person, with very dry, wind-burnt skin, many fine lines, and the beginning of wrinkles, applied a lotion comprising cytomodulin (SEQ ID NO: 1) at a concentration of about 0.001% on left side of their face only, three days per week. […] Within 3 weeks there was a a noticeable difference between the two sides of the face, with the right side having more fine lines appearing much drier and weather-worn than the left (treated) side. […] The subject stopped application after 3 months because of the difference in the appearance of the two side of the face A person applied a lotion comprising cytomodulin (SEQ ID NO: 1) at a concentration of about 0.001% on right side of their neck only, daily. […] The right side of the neck is noticeably different than the left side of the neck. […] A person with noticebly wrinkled and thickened skin on the neck applied a lotion comprising cytomodulin (SEQ ID NO: 1) at a concentration of about 0.001% to their neck once every four days. The subject also used Lancome makeup with sunscreen and Oil of Olay moisturizer for sensitive skin.

[5] = system: NRK-49 F fibroblasts; experiment: Growth and colony formation by NRK-49 F fibroblasts in soft agar; format: cell-based; conditions: 100 nM in Example 2, with EGF and PDGF
Protocol: The original assay for TGF-β, the ability to promote anchorage independent growth of normal fibroblasts is still one of the hallmarks of TGF-β activity. NRK-49 F fibroblasts were grown at 37° C. in DEM supplemented with 10% fetal calf serum. […] To this, either 100 nM TGF-β (positive control) or 100 nM cytomodulin was added. NRK49 F fibroblasts (5×10^4 cells/mi) were mixed with 0.3% agar were plated on the bottom of 35 mm culture dishes. Colony formation was observed starting on day 3 of culture.

[6] = system: human dermal fibroblasts; experiment: Expression of type I collagen, TGF-β and collagenase in human dermal fibroblasts; format: cell-based; conditions: for Expression of TGF-β / Expression of collagenase: human dermal fibroblasts; for Expression of type I collagen: human dermal fibroblasts (primary cultures of neo-natal cells for cytomodulin)
[7] = system: human osteogenic sarcoma (HOS) cell line; experiment: Expression of type I collagen, TGF-β, alkaline phosphatase and osteonectin in HOS cells; format: cell-based
[8] = system: TGF-β activity; experiment: TGF-β like activity, overall statement from the assays used; format: cell-based; conditions: by the assays used
[9] = system: NRK-49 F fibroblasts; conditions: literature statement (Massagu, J. Biol. Chem. 1984); cited from earlier work

Substance: A-N-V-A-E-K (ANVAEK) [SEQ ID NO: 15]
Inhib by new peptide/Inhib by cytomodulin ([1]; concentration 10 nM): 0.80 | Inhib by new peptide/Inhib by cytomodulin ([1]; concentration 100 nM): 1.00

Negative effects of application [2]: No negative effects
Substance: ANVAENA [cytomodulin, Ala-Asn-Val-Ala-Glu-Asn-Ala]
Adverse effects [3]: No adverse effects | Accidental contact of the lotion with the eyes [4]: no apparent problem or irritation | Adverse effects [4]: No adverse effects | Adverse effects (subject's report) [4]: no adverse effects

Substance: L-(Abu)-A-E-A-K (L[Abu]AEAK) [SEQ ID NO: 6]
3H-Radioactivity ([1]; peptide 1 nM): 2.02 10^3 dpm | % Inhibition of incorporation of 3H-thymidine ([1]; peptide 1 nM): 33% | 3H-Radioactivity ([1]; peptide 5 nM): 1.97 10^3 dpm | % Inhibition of incorporation of 3H-thymidine ([1]; peptide 5 nM): 35%

Substance: L-(Aib)-A-E-A-K (L[Aib]AEAK) [SEQ ID NO: 4]
3H-Radioactivity ([1]; peptide 5 nM): 2.31 10^3 dpm | % Inhibition of incorporation of 3H-thymidine ([1]; peptide 5 nM): 35% | 3H-Radioactivity ([1]; peptide 50 nM): 1.94 10^3 dpm | % Inhibition of incorporation of 3H-thymidine ([1]; peptide 50 nM): 46% | 3H-Radioactivity ([1]; peptide 100 nM): 1.44 10^3 dpm | % Inhibition of incorporation of 3H-thymidine ([1]; peptide 100 nM): 60% | 3H-Radioactivity ([1]; peptide 500 nM): 1.61 10^3 dpm | % Inhibition of incorporation of 3H-thymidine ([1]; peptide 500 nM): 55% | % Inhibition of incorporation of 3H-thymidine ([1]; peptide 1 mM (so in the source)): 27% | 3H-Radioactivity ([1]; peptide 1 mM (so in the source), control without peptide 3.57): 2.60 10^3 dpm

Substance: L-I-(Nme-A)-E-A-K (LI[NMeA]EAK) [SEQ ID NO: 5]
3H-Radioactivity ([1]; peptide 1 nM): 1.61 10^3 dpm | % Inhibition of incorporation of 3H-thymidine ([1]; peptide 1 nM): 47% | 3H-Radioactivity ([1]; peptide 5 nM): 1.76 10^3 dpm | % Inhibition of incorporation of 3H-thymidine ([1]; peptide 5 nM): 42% | 3H-Radioactivity ([1]; peptide 50 nM): 1.60 10^3 dpm | % Inhibition of incorporation of 3H-thymidine ([1]; peptide 50 nM): 41% | 3H-Radioactivity ([1]; peptide 100 nM): 1.81 10^3 dpm | % Inhibition of incorporation of 3H-thymidine ([1]; peptide 100 nM): 40% | 3H-Radioactivity ([1]; peptide 500 nM): 1.42 10^3 dpm | % Inhibition of incorporation of 3H-thymidine ([1]; peptide 500 nM): 53%

Substance: L-I-A-D-A-K (LIADAK) [SEQ ID NO: 9]
Inhib by new peptide/Inhib by cytomodulin ([1]; concentration 1 nM): 0.45 | Inhib by new peptide/Inhib by cytomodulin ([1]; concentration 10 nM): 0.87 | Inhib by new peptide/Inhib by cytomodulin ([1]; concentration 100 nM): 1.14 | Inhib by new peptide/Inhib by cytomodulin ([1]; concentration 1000 nM): 1.25

Substance: L-I-A-E-A-A (LIAEAA) [SEQ ID NO: 11]
Inhib by new peptide/Inhib by cytomodulin ([1]; concentration 1 nM): 1.16 | Inhib by new peptide/Inhib by cytomodulin ([1]; concentration 10 nM): 1.00 | Inhib by new peptide/Inhib by cytomodulin ([1]; concentration 100 nM): 1.17 | Inhib by new peptide/Inhib by cytomodulin ([1]; concentration 1000 nM): 1.85

Expression of TGF-β [6]: increased the expression | Expression of collagenase [6]: decreased the expression | Expression of type I collagen [6]: increased the expression
Substance: L-I-A-E-A-K (LIAEAK) [L2]
Inhibition of DNA synthesis / proliferation of Mv-1-Lu cells (in words) [1]: inhibited the proliferation | Growth and colony formation in soft agar [5]: promoted the growth | Expression of TGF-β [7]: increased the expression | Expression of alkaline phosphatase [7]: increased the expression | Expression of type I collagen [7]: increased the expression | TGF-β like activity (overall) [8]: at least as much TGF-β like activity as cytomodulin

Substance: L-I-A-G-E-G (LIAGEG) [SEQ ID NO: 14]
Inhib by new peptide/Inhib by cytomodulin ([1]; concentration 1 nM): 0.66 | Inhib by new peptide/Inhib by cytomodulin ([1]; concentration 10 nM): 0.85 | Inhib by new peptide/Inhib by cytomodulin ([1]; concentration 100 nM): 1.41 | Inhib by new peptide/Inhib by cytomodulin ([1]; concentration 1000 nM): 1.88

Substance: L-I-A-G-G-E (LIAGGE) [SEQ ID NO: 13]
Inhib by new peptide/Inhib by cytomodulin ([1]; concentration 1 nM): 1.10 | Inhib by new peptide/Inhib by cytomodulin ([1]; concentration 10 nM): 1.33 | Inhib by new peptide/Inhib by cytomodulin ([1]; concentration 100 nM): 1.45 | Inhib by new peptide/Inhib by cytomodulin ([1]; concentration 1000 nM): 1.90

Substance: L-I-A-K-G-K (LIAKGK) [SEQ ID NO: 16]
Inhib by new peptide/Inhib by cytomodulin ([1]; concentration 10 nM): 0.65 | Inhib by new peptide/Inhib by cytomodulin ([1]; concentration 100 nM): 0.67

Substance: L-I-A-N-A-K (LIANAK) [SEQ ID NO: 10]
Inhib by new peptide/Inhib by cytomodulin ([1]; concentration 1 nM): 1.70 | Inhib by new peptide/Inhib by cytomodulin ([1]; concentration 10 nM): 2.00 | Inhib by new peptide/Inhib by cytomodulin ([1]; concentration 100 nM): 1.43 | Inhib by new peptide/Inhib by cytomodulin ([1]; concentration 1000 nM): 3.05

Expression of TGF-β [6]: increased the expression | Expression of collagenase [6]: decreased the expression | Expression of type I collagen [6]: increased the expression
Substance: L-I-A-P-E-A (LIAPEA) [L1]
Inhibition of DNA synthesis / proliferation of Mv-1-Lu cells (in words) [1]: inhibited the proliferation | Growth and colony formation in soft agar [5]: promoted the growth | Expression of TGF-β [7]: increased the expression | Expression of alkaline phosphatase [7]: increased the expression | Expression of type I collagen [7]: increased the expression | TGF-β like activity (overall) [8]: at least as much TGF-β like activity as cytomodulin

Substance: L-I-A-Q-A-K (LIAQAK) [SEQ ID NO: 12]
Inhib by new peptide/Inhib by cytomodulin ([1]; concentration 1 nM): 0.90 | Inhib by new peptide/Inhib by cytomodulin ([1]; concentration 10 nM): 1.10 | Inhib by new peptide/Inhib by cytomodulin ([1]; concentration 100 nM): 0.80 | Inhib by new peptide/Inhib by cytomodulin ([1]; concentration 1000 nM): 1.56

Substance: TGF-β
Growth and colony formation in soft agar [5]: grew colonies | Colony formation in the absence of EGF and PDGF [9]: does not induce colony formation
